These results are taken from paper PMC10878790 (The Journal of Biological Chemistry, 2024).

One may read the IC50 as the point on the concentration scale where inhibition reaches its midpoint.

The subject of assay [1] is MDA-MB-231 cells. Kind of assay: Transwell invasion assay. Format: cell-based. The following applies: 24 h. As for the experimental part:
(§1) The wound healing assay was performed using two breast cancer cell lines, MDA-MB-231 and MCF-7, and two prostate cancer cell lines, PC-3 and DU-145, to evaluate the antimigratory capacity of the peptides. […] The cells were grown to approximately 80% confluency in 12-well tissue culture plates, and a cell-free area was created by scraping the monolayer. The peptides were added, and the cells were incubated at 37 °C with 5% CO2 for 24 h. Wound closure was assessed by imaging the wounds at 0 and 24 h, and the wound areas were quantified using ImageJ software (https://imagej.net/ij/). In the transwell invasion assay, MDA-MB-231 cells were serum starved for 4 h followed by a pretreatment with increasing concentrations of each peptide in a 0.1% serum-containing DMEM for 24 h. The cells were then trypsinized, resuspended in same media for the second treatment of peptides, and counted. Next, 40,000 cells were resuspended in 0.1% serum containing DMEM and added to the upper chamber of Transwell plates (Corning Life Sciences) with a polyethylene terephthalate membrane (6.4 mm diameter, 8 μm pore size). The bottom chambers were filled with DMEM containing 10% FBS as a chemoattractant. The transwell plates were incubated at 37 °C with 5% CO2 for 24 h to allow the invasion of cells through the membrane. The invaded cells on the lower side of the membrane were fixed with 4% paraformaldehyde for 15 min, followed by a PBS wash. The membrane inserts were further fixed with ice-cold methanol for 20 min and stained with 0.25% (w/v) crystal violet. After incubation, the noninvasive cells on the upper surface of the membrane were gently removed using a cotton swab. Random fields were chosen for imaging, and the number of invaded cells was counted using ImageJ software. The results were expressed as the average number of invaded cells compared with the control.

The test system of assay [2] is MDA-MB-231 cells. Kind of assay: Wound healing assay. The class given is cell-based. The following applies: equimolar peptide concentrations; compared to untreated cells. As for the experimental part:
as §1

Another assay deals with DU-145. Format: cell-based. The following applies: MTT, 48 hours. As for the experimental part: (§2) MDA-MB-231, MCF-7, DU-145, PC-3, and NIH-3T3 cell lines were procured from the American Type Culture Collection and used within ten consecutive passages to ensure consistent cell behavior. MDA-MB-231, MCF-7, and NIH-3T3 cells were maintained at 37 °C and 5% CO2 in Dulbecco's modified Eagle's medium (DMEM) high glucose (Hyclone) supplemented with 10% fetal bovine serum (FBS) and 1% Antibiotic-Antimycotic (Gibco), while DU-145 and PC-3 cells were grown in RPMI-1640 supplemented with the same concentration of FBS and Antibiotic-Antimycotic. The media was replenished every 2 days. Cells were checked for mycoplasma at regular intervals using a PCR-based Mycoplasma detection kit plasmocin prophylactic (InvivoGen). In all experiments, cells were maintained in serum-free DMEM for 6 h before peptide treatment. Peptide treatment was done in the media containing 0.1% fetal bovine serum for 48 h in all the experiments unless otherwise stated.
(§3) Cell viability was determined by 3-[4,5-dimethylthiazol-2-yl]-2,5 diphenyl tetrazolium bromide (MTT) assay as described earlier ([52]). ProTox-II "Prediction of Toxicity of Chemicals" web server was used for toxicology assessment ([19]). See the Supporting Information for full experimental details.
(§4) Full Experimental Method for Cell Viability Assay:
(§5) Cell viability of murine NIH- 3T3 cells, as well as MDA- MB -231 , MC F-7, PC- 3, and DU-145 cells, wa s assessed through the MT T assay as described previously(1). Approximately
(§6) 5000 cells per well were seeded in a 96-well plate and allowed to incubate overnight for attachment. Following attachment, the growth medium was replaced wit h a fresh medium
(§7) containing serial dilutions of peptides. The cells we re then incubated for 48 hours in a 5% CO2 incubator . After incubation, 10 μl of a 5 mg/mL MT T solution was introduced to each
(§8) well and left to incubate for an additional 2 hours . Subsequently, the entire medium, along wit h the MT T solution, was aspirated, and the remaining formazan crystals were dissolved
(§9) in 200 μl of DMSO. The absorbance was measured at 595 nm using a Biotek Synergy 2 Plate Reader. […]
(§10) ProTox-II "Prediction of Toxicity of Chemicals" we b server was used for toxicology assessment. […]

A further assay relates to MCF-7. Format: cell-based. The settings on record: MTT, 48 hours. As for the experimental part: as §2, §3, §4, §5, §6, §7, §8, §9, §10
For another assay, the system named is PC-3. Format: cell-based. The following applies: MTT, 48 hours. On the procedure: as §2, §3, §4, §5, §6, §7, §8, §9, §10
Another assay has as its system MDA-MB-231. Format: cell-based. The following applies: MTT, 48 hours. As for the experimental part:
as §2, §3, §4, §5, §6, §7, §8, §9, §10

The next assay concerns NIH-3T3. Format: cell-based, murine. The settings on record: MTT, 48 hours; normal cells. As for the experimental part:
as §2, §3, §4, §5, §6, §7, §8, §9, §10

The test system of assay [3] is DU-145 cells. Kind of assay: Quantitative real-time PCR of EMT-related genes. The class given is cell-based. The following applies: 48 h, 90 μM; for inhibition of the majority of the genes examined in the PCR analysis: except for SNAIL. On the procedure:
18S RNA transcript levels were used for internal control. […] E-cadherin and SNAIL are increased and decreased, respectively, when probed with antibodies specific for these proteins as compared to the untreated. […] Densitometry was determined and normalized to total protein or β-actin. Peptide concentration: 90 μM. All the assays were performed in triplicates and the results are expressed as means ± SD. […] EMT, epithelial-mesenchymal transition; MMP-9, matrix metalloproteinase 9; NF-κB, nuclear factor kappa B.
Total RNA was extracted using the TRIzol reagent (Invitrogen). One microgram of total RNA was used for complementary DNA reverse transcription using the Superscript-III First Strand Synthesis kit (Invitrogen) following the manufacturer's protocol. All real-time PCR reactions were performed in duplicates in a 20 μl volume using SYBR Green Master Mix (Invitrogen) in a Realplex2 Mastercycler ep gradient S thermal cycler (Eppendorf). The PCR program followed for all the primers was an activation at 95 °C for 15 min, followed by 40 cycles of 95 °C for 30 s, 54 °C for 1 min, and 72 °C for 45 s. The reaction was finally put to hold at 4 °C. Subsequently, 18S was used as the reference gene for the mRNA levels. Relative change in gene expression was calculated according to the ΔΔCt method ([53], [54]).

For assay [4], the system named is DU-145 cells. Kind of assay: Wound healing assay. The following applies: scrambled peptides compared to LA3IK and RP-7 at equivalent concentrations. Format: cell-based. As for the experimental part: as §1
Another assay deals with PC-3 cells. Kind of assay: Wound healing assay. The class given is cell-based. The following applies: scrambled peptides compared to LA3IK and RP-7 at equivalent concentrations. On the procedure: as §1
For a further assay, the system named is MCF-7 cells. Kind of assay: Wound healing assay. Format: cell-based. The following applies: scrambled peptides compared to LA3IK and RP-7 at equivalent concentrations. On the procedure: as §1

Ends that are not written are not given here.

Take Ac-SRPPCVIL-NH2 [SR-8]: the “number of invaded MDA-MB-231 cells / inhibition of invasion” value in the assay with MDA-MB-231 cells [1] was “limited inhibition”. In addition, in the assay with MDA-MB-231 cells [2], the inhibition of migration entry is given as “limited inhibition”. For the same substance, the IC50 was > 600 µM in the assay on DU-145; 141 ± 12.9 µM with MCF-7; > 600 µM in the assay on PC-3; 528.3 ± 4.57 µM in the assay on MDA-MB-231; > 600 µM with NIH-3T3.

On to Ac-LAKAVI-NH2 [LA3IK-SCR], for which, in the assay on DU-145 cells [3], the “gene expression in Zeb-1 and SNAIL” value is listed as “statistically diminished”. In addition, the “inhibition of the majority of the genes examined in the PCR analysis” value in the assay with DU-145 cells [3] was “statistically nonsignificant inhibition”. Besides, the “antimigratory activity in wound healing assay” value in the assay on DU-145 cells [4], in the assay on PC-3 cells and in the assay on MCF-7 cells was “reduced antimigratory activity” throughout. Besides, the inhibition of migration entry with MDA-MB-231 cells [2] is on record as “nonsignificant inhibition”. The IC50 with DU-145 was 352 ± 7.18 µM; with MCF-7, 133 ± 9.52 µM; in the assay on PC-3, 319 ± 13.6 µM; with MDA-MB-231, 243 ± 8.16 µM; in the assay with NIH-3T3 it was > 600 µM.

Consider LASAVK [LA-6, LASAVK], for which the “number of invaded MDA-MB-231 cells / inhibition of invasion” value in the assay with MDA-MB-231 cells [1] was “limited inhibition”. For the same substance, the inhibition of migration entry in the assay with MDA-MB-231 cells [2] is given as “limited inhibition”. In addition, the IC50 with DU-145, in the assay with MCF-7, in the assay on PC-3, in the assay on MDA-MB-231 and in the assay with NIH-3T3 was > 600 µM each time.

For Ac-RPPLVIC-NH2 [RP-7 SCR], the “expression of SLUG and Zeb-1” value in the assay with DU-145 cells [3] was “reduced expression”. Also, in the assay on DU-145 cells [3], the “inhibition of the majority of the genes examined in the PCR analysis” value is “statistically nonsignificant inhibition”. For the same substance, the “antimigratory activity in wound healing assay” value in the assay on DU-145 cells [4], in the assay on PC-3 cells and in the assay with MCF-7 cells was “reduced antimigratory activity” each time. Further, the inhibition of migration result in the assay with MDA-MB-231 cells [2] is “nonsignificant inhibition”. Further, the half-maximal inhibitory concentration (IC50) was 137 ± 5.98 µM in the assay on DU-145; 150 ± 10.3 µM with MCF-7; 128 ± 11.7 µM in the assay with PC-3; 156 ± 8.15 µM in the assay on MDA-MB-231; > 600 µM with NIH-3T3.
